Measured values as given in PubChem BioAssay (NCI).
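Five compound concentrations were applied to cells in 96-well plates for 48 hours; endpoints were derived by simple linear interpolation of the resulting dose-response curve. The concentration for 50% growth inhibition is given as GI50. TGI: concentration producing complete growth inhibition.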

Assays:
Test in all cases: NCI tumour cell line growth inhibition, 48 h
[1] = test system: UO-31 renal
[2] = test system: HCC-2998 colon
[3] = test system: SNB-19 CNS
[4] = test system: LOX IMVI melanoma
[5] = test system: SW-620 colon
[6] = test system: T-47D breast
[7] = test system: SF-539 CNS
[8] = test system: HS 578T breast
[9] = test system: SF-295 CNS
[10] = test system: SR leukemia

COc1cc(C2CC(c3cccc(Nc4ccnc5cc(Cl)ccc45)c3)=NN2c2ccc(Cl)cc2)cc(OC)c1OC (stereo unspecified)
GI50 [1]: 0.489 µM
TGI [1]: 15.3 µM
GI50 [2]: 3.14 µM
TGI [2]: 22.1 µM
GI50 [3]: 30.3 µM
TGI [3]: > 100 µM
GI50 [4]: 0.647 µM
TGI [4]: > 100 µM
GI50 [5]: 0.666 µM
TGI [5]: > 100 µM
GI50 [6]: 0.687 µM
TGI [6]: > 100 µM
GI50 [7]: 1.71 µM
TGI [7]: 4.87 µM
GI50 [8]: 2.45 µM
TGI [8]: 86.8 µM
GI50 [9]: 1.71 µM
TGI [9]: 33.8 µM
GI50 [10]: 2.54 µM
TGI [10]: > 100 µM

COc1ccc(C=Nc2c(C(=O)Nc3cccc(Cl)c3C)sc3nc(C)c(C(=O)/C=C/c4ccc(OC)cc4)cc23)cc1
GI50 [1]: 2.04 µM
TGI [1]: > 50 µM
GI50 [2]: 9.89 µM
TGI [2]: > 50 µM
GI50 [3]: 1.58 µM
TGI [3]: 28.3 µM
GI50 [4]: 0.666 µM
TGI [4]: > 50 µM
GI50 [5]: 0.412 µM
TGI [5]: > 50 µM
GI50 [6]: 1.28 µM
TGI [6]: > 50 µM
GI50 [7]: 0.449 µM
TGI [7]: 2.41 µM
GI50 [8]: 0.458 µM
TGI [8]: 7.67 µM
GI50 [9]: 0.362 µM
TGI [9]: 8.43 µM
GI50 [10]: 0.421 µM
TGI [10]: > 50 µM

Cc1c2ccn(O)cc2c(C)c2c1nc1ccccc12
TGI [1]: 27.5 µM
TGI [2]: 98.5 µM
TGI [3]: 30.8 µM
TGI [4]: 17.1 µM
TGI [5]: > 100 µM
TGI [6]: 8.93 µM
TGI [7]: 11 µM
TGI [8]: 8.44 µM
TGI [9]: 23.4 µM
TGI [10]: 15.2 µM

Cc1c(-c2ccc(C3CCCCC3)cc2)nc2ccc(F)cc2c1C(=O)O
GI50 [1]: 0.721 µM
TGI [1]: > 100 µM
GI50 [2]: 10.1 µM
TGI [2]: > 100 µM
GI50 [3]: 0.2 µM
TGI [3]: > 100 µM
GI50 [4]: 0.0512 µM
TGI [4]: > 100 µM
GI50 [5]: 0.228 µM
TGI [5]: > 100 µM
GI50 [6]: 9.65 µM
TGI [6]: > 100 µM
GI50 [7]: 0.0701 µM
TGI [7]: > 70 µM
GI50 [8]: 34.8 µM
TGI [8]: > 100 µM
GI50 [9]: 0.0881 µM
TGI [9]: > 100 µM
GI50 [10]: 0.0629 µM
TGI [10]: > 100 µM

C[C@H]1/C(=C/C(=O)OCCN(C)C)CC[C@H]2[C@H]1C(=O)C[C@H]1C(C)(C)[C@@H](O)CC[C@]21C
TGI [1]: > 100 µM
TGI [2]: > 100 µM
TGI [3]: > 100 µM
TGI [4]: > 100 µM
TGI [5]: > 100 µM
TGI [6]: > 100 µM
TGI [7]: > 100 µM
TGI [8]: > 100 µM
TGI [9]: > 100 µM
TGI [10]: > 100 µM

CCN1CCC(Nc2ccnc3cc(Cl)ccc23)CC1
GI50 [1]: 9.06 µM
TGI [1]: 29 µM
GI50 [2]: 33.3 µM
TGI [2]: > 100 µM
GI50 [3]: 79.1 µM
TGI [3]: > 100 µM
GI50 [4]: 26.1 µM
TGI [4]: > 100 µM
GI50 [5]: 21.8 µM
TGI [5]: > 100 µM
GI50 [6]: 31.3 µM
TGI [6]: > 100 µM
GI50 [7]: 15.8 µM
TGI [7]: 36 µM
GI50 [8]: 17.1 µM
TGI [8]: 48.9 µM
GI50 [9]: 18 µM
TGI [9]: 53.6 µM
GI50 [10]: 3.44 µM
TGI [10]: 28.2 µM

COC(=O)C1=C(O)[C@H](C(=O)OC)C2(O)C(C(=O)OC)[C@H](c3ccc(OC(=O)C(C)c4ccccc4)cc3)C[C@@H]1[C@@H]2C(=O)OC (stereo partly specified)
GI50 [1]: 29.5 µM
TGI [1]: > 50 µM
GI50 [2]: 10.7 µM
TGI [2]: 20.6 µM
GI50 [3]: 23.7 µM
TGI [3]: > 50 µM
GI50 [4]: 6.85 µM
TGI [4]: 16.2 µM
GI50 [5]: 21 µM
TGI [5]: > 50 µM
GI50 [6]: 12.3 µM
TGI [6]: > 50 µM
GI50 [7]: 11.8 µM
TGI [7]: 34.1 µM
GI50 [8]: 10.3 µM
TGI [8]: 34.1 µM
GI50 [9]: 16.1 µM
TGI [9]: > 50 µM
GI50 [10]: 29.9 µM
TGI [10]: > 50 µM

O=C(/C=C/c1ccc(Cl)cc1)c1ccccc(=O)c1O
TGI [1]: > 100 µM
TGI [2]: 8.29 µM
TGI [3]: 11.8 µM
TGI [4]: 13 µM
TGI [5]: > 40 µM
TGI [6]: 19.8 µM
TGI [7]: 17.5 µM
TGI [8]: 31.1 µM
TGI [9]: 16.3 µM
TGI [10]: > 100 µM

CC(C)N1CCN(c2ccncc2S(=O)(=O)N2CCCCC2)CC1
TGI [1]: > 100 µM
TGI [2]: > 100 µM
TGI [3]: > 100 µM
TGI [4]: > 100 µM
TGI [5]: > 100 µM
TGI [6]: > 100 µM
TGI [7]: > 100 µM
TGI [8]: > 100 µM
TGI [9]: > 100 µM
TGI [10]: > 100 µM

CO[C@H]1C=CO[C@@]2(C)Oc3c(C)c(O)c4c(O)c(c(CN5CCN(C)CC5)c(O)c4c3C2=O)NC(=O)/C(C)=C\C=C[C@H](C)[C@H](O)C(C)[C@@H](O)C(C)[C@H](OC(C)=O)[C@@H]1C (stereo partly specified)
TGI [1]: > 94.4 µM
TGI [2]: > 100 µM
TGI [3]: > 100 µM
TGI [4]: > 71.9 µM
TGI [5]: > 100 µM
TGI [6]: > 100 µM
TGI [7]: > 68.5 µM
TGI [8]: > 100 µM
TGI [9]: > 100 µM
TGI [10]: 35.5 µM

CCCCCCCCCCCCCCCCCc1nccn1CCOCCO
GI50 [1]: 5.68 µg/mL
TGI [1]: 11.6 µg/mL
GI50 [2]: 5.76 µg/mL
TGI [2]: 11.1 µg/mL
GI50 [3]: 5.03 µg/mL
TGI [3]: 10.3 µg/mL
GI50 [4]: 5.11 µg/mL
TGI [4]: 10.4 µg/mL
GI50 [5]: 6.19 µg/mL
TGI [5]: 11.7 µg/mL
GI50 [6]: 2.99 µg/mL
TGI [6]: 8.99 µg/mL
GI50 [7]: 5.74 µg/mL
TGI [7]: 11.1 µg/mL
GI50 [8]: 5.34 µg/mL
TGI [8]: 12.7 µg/mL
GI50 [9]: 5.27 µg/mL
TGI [9]: 11 µg/mL
GI50 [10]: 4.93 µg/mL
TGI [10]: 11.9 µg/mL

O=C1/C(=C/c2ccccc2)CN(C(=O)C(Cl)Cl)C/C1=C\c1ccccc1
GI50 [1]: 1.29 µM
TGI [1]: 2.62 µM
GI50 [2]: 0.703 µM
TGI [2]: 1.98 µM
GI50 [3]: 0.495 µM
TGI [3]: 1.78 µM
GI50 [4]: 0.139 µM
TGI [4]: 0.353 µM
GI50 [5]: 0.135 µM
TGI [5]: 0.44 µM
GI50 [6]: 1.19 µM
TGI [6]: 4.11 µM
GI50 [7]: 0.884 µM
TGI [7]: 2.25 µM
GI50 [8]: 1.32 µM
TGI [8]: 6.86 µM
GI50 [9]: 0.597 µM
TGI [9]: 1.86 µM
GI50 [10]: 0.11 µM

N#Cc1c(NCc2ccccc2)nc(NCc2ccccc2)c(C#N)c1-c1ccc(O)cc1
GI50 [1]: 18.6 µM
TGI [1]: 68.5 µM
GI50 [2]: 39.5 µM
TGI [2]: > 100 µM
GI50 [3]: 50.5 µM
TGI [3]: > 100 µM
GI50 [4]: 16.7 µM
TGI [4]: 41.4 µM
GI50 [5]: 36.1 µM
TGI [5]: > 100 µM
GI50 [6]: 23.8 µM
TGI [6]: > 100 µM
GI50 [7]: 13.1 µM
TGI [7]: 37.4 µM
GI50 [8]: 22.9 µM
TGI [8]: > 100 µM
GI50 [9]: 27.1 µM
TGI [9]: > 100 µM
GI50 [10]: 7.09 µM
TGI [10]: 91.7 µM

COc1cc2c(c(OC)c1OC)-c1ccc(O)cc1[C@@H](NC(C)=O)CC2
GI50 [1]: 0.279 µM
TGI [1]: > 51.2 µM
GI50 [2]: 0.0465 µM
TGI [2]: > 100 µM
GI50 [3]: 0.0554 µM
TGI [3]: > 100 µM
GI50 [4]: 0.0803 µM
TGI [4]: > 100 µM
GI50 [5]: 0.0409 µM
TGI [5]: > 100 µM
GI50 [6]: 0.0495 µM
TGI [6]: > 100 µM
GI50 [7]: 0.0261 µM
GI50 [8]: 0.0371 µM
GI50 [9]: 0.0341 µM
TGI [9]: > 100 µM
GI50 [10]: 0.0265 µM

Cn1c(=O)c(Oc2ccc(F)cc2F)cc2cnc(NC(C)(C)CO)nc21
GI50 [1]: 6.65 µM
TGI [1]: > 13.4 µM
GI50 [2]: > 25 µM
TGI [2]: > 25 µM
GI50 [3]: > 25 µM
TGI [3]: > 25 µM
GI50 [4]: > 25 µM
TGI [4]: > 25 µM
GI50 [5]: > 25 µM
TGI [5]: > 25 µM
GI50 [6]: 13.7 µM
TGI [6]: > 25 µM
GI50 [7]: > 25 µM
TGI [7]: > 25 µM
GI50 [8]: > 25 µM
TGI [8]: > 25 µM
GI50 [9]: > 25 µM
TGI [9]: > 25 µM
GI50 [10]: > 25 µM
TGI [10]: > 25 µM

CC(=O)Nc1cc2cc(N)ccc2oc1=O
TGI [1]: > 100 µM
TGI [2]: > 100 µM
TGI [3]: > 100 µM
TGI [4]: > 100 µM
TGI [5]: > 100 µM
TGI [6]: > 100 µM
TGI [7]: > 100 µM
TGI [8]: > 100 µM
TGI [9]: > 100 µM
TGI [10]: > 100 µM

C=C(CN1CCN(c2ccc(C(F)(F)F)cc2)CC1)c1ccc(C(=O)Nc2ccccc2N)cc1
GI50 [1]: 0.967 µM
TGI [1]: > 73.1 µM
GI50 [2]: 30.2 µM
TGI [2]: > 100 µM
GI50 [3]: 12.5 µM
TGI [3]: 73.5 µM
GI50 [4]: 11.1 µM
TGI [4]: > 100 µM
GI50 [5]: > 78.8 µM
TGI [5]: > 100 µM
GI50 [6]: 21.8 µM
TGI [6]: > 100 µM
GI50 [7]: 8.15 µM
TGI [7]: > 100 µM
GI50 [8]: 22.6 µM
TGI [8]: > 100 µM
GI50 [9]: 10.8 µM
TGI [9]: > 100 µM
GI50 [10]: 1.1 µM
TGI [10]: > 100 µM
